# Assay results from US20150202224A1, “METHOD OF TREATING IRON DEFICIENCY ANEMIA” (Luitpold Pharmaceuticals, Inc., priority 2012, published 2015).
# Where two headings read alike, the source gives them in different places.
# How the values were obtained:
# [1] = tested on: subjects with iron deficiency anemia (IDA); experiment: Randomized trial of ferric carboxymaltose vs. oral iron in non-responders to the oral iron run-in: hemoglobin levels; format: in vivo, human; settings: for Hemoglobin at baseline (Day 1), mean (SD): before randomized treatment, non-responders to oral iron run-in; for Hemoglobin change to Day 35, mean (SD) / Hemoglobin change to Day 35, median: change from baseline (Day 1) to Day 35; for percentage of subjects with a hemoglobin increase of ≧1 g/dL: non-responders to the oral iron run-in in whom hepcidin values were measured; for percentage of subjects with a hemoglobin increase of ≧1 g/dL / mean Hemoglobin increases / percentage of subjects with hemoglobin change ≧2 g/dL: after randomization; for mean Hemoglobin increases / percentage of subjects with hemoglobin change ≧2 g/dL: non-responders to the oral iron run-in
# Experimental: The following example describes hepcidin measurements obtained during a randomized, multi-center, controlled trial comparing the efficacy and safety of ferric carboxymaltose in subjects with iron deficiency anemia (IDA) (see generally, Szczech 2011).
# (§1) Ferric carboxymaltose (Group A) was administered at a dose of 15 mg/kg to a maximum 750 mg per dose administered intravenously on Day 0 and Day 7. Oral iron was given as ferrous sulfate 325 mg three times a day for an additional 14 days starting on Day 0.
# Hemoglobin levels and markers of iron status were assessed up to 35 days and measures of safety and tolerability were assessed up to 120 days. Hemoglobin levels and markers of iron status were assessed at screening (Day […]), Day 1, and Day 35.
# (§2) The following example describes the randomized study of ferric carboxymaltose (FCM) vs. oral iron therapy on non-responders. Baseline (Day 1) and post-treatment (Day 35) levels of hepcidin and hemoglobin were compared.
# [2] = tested on: hepcidin; experiment: Randomized trial of ferric carboxymaltose vs. oral iron in non-responders: serum hepcidin levels by C-ELISA; format: in vivo, human; settings: for Hepcidin on Day 35, mean (SD) / Hepcidin on Day 35, median / Hepcidin at baseline (Day 1), mean (SD) / Hepcidin at baseline (Day 1), median: non-responders to oral iron run-in; for Hepcidin at baseline (Day 1), mean (SD): before randomized treatment; for Hepcidin change to Day 35, mean (SD) / Hepcidin change to Day 35, median: change from baseline (Day 1) to Day 35; for change in hepcidin from baseline (Day 1) to Day 35, in words: non-responders to the oral iron run-in
# Experimental: as §1
# Hepcidin levels were analyzed from serum samples obtained at screening (Day […]) in an initial Analysis Group (I) of 44 subjects, 22 responders, and 22 non-responders. A hepcidin value of ≧20 ng/mL was identified as a cutoff for further study in the determination of predictive values for non-responsiveness to 14 day oral iron run-in in 240 subjects (Analysis Group II).
# Hepcidin levels were also assessed after the oral iron run-in (Day 1) and after treatment with intravenous (IV) iron or oral iron post-randomization (Day 35). Hepcidin levels were measured using a commercially available competitive enzyme-linked immunosorbent assay (C-ELISA). Samples were collected by the investigator at the site, stored by a contract research organization (Covance, Indianapolis, Ind.) and sent to a commercial laboratory (Intrinsic LifeSciences, La Jolla, Calif.) for analysis.
# as §2
# [3] = tested on: subjects with iron deficiency anemia (IDA); settings: Analysis Group II, ferrous sulfate 325 mg three times daily for 14 days
# Experimental: Eligibility for this trial included subjects≧18 years of age with hemoglobin≦11 g/dL and IDA of any etiology with ferritin≦100 ng/mL, or ≦300 ng/mL when transferrin saturation (TSAT) was ≦30%.
# The following example describes the determination and comparison of hepcidin levels in 240 subjects with response to oral iron. Hepcidin and other iron indices were measured and compared. The objective of the study was to determine the baseline characteristics of the subject population and to compare levels of hepcidin, hemoglobin, and iron indices in responders and non-responders after a 14 day treatment of oral iron.
# [4] = cited from earlier work
# [5] = in vivo; cited from earlier work
# [6] = tested on: rodents and dogs; settings: single dose; cited from earlier work
# [7] = tested on: dogs and rats; settings: cumulative doses over 13 weeks, dose-related clinical signs of iron accumulation in liver, spleen, kidneys; cited from earlier work
# [8] = tested on: rabbit; settings: intra-arterial, perivenous or intravenous; cited from earlier work
# [9] = in vitro and in vivo; cited from earlier work
# [10] = tested on: dextran antibodies; settings: cited from earlier work
# [11] = listed as ferric carboxymaltose
Substance,"Hemoglobin on Day 35, mean (SD) [1]","Hemoglobin on Day 35, median [1] [g/dL]","Hemoglobin at baseline (Day 1), median [1] [g/dL]","Hemoglobin at baseline (Day 1), mean (SD) [1]","Hemoglobin change to Day 35, mean (SD) [1]","Hemoglobin change to Day 35, median [1] [g/dL]",percentage of subjects with a hemoglobin increase of ≧1 g/dL [1] [%],mean Hemoglobin increases [1] [gm/dL],percentage of subjects with hemoglobin change ≧2 g/dL [1] [%],"Hepcidin on Day 35, mean (SD) [2]","Hepcidin on Day 35, median [2] [ng/mL]","Hepcidin at baseline (Day 1), mean (SD) [2]","Hepcidin at baseline (Day 1), median [2] [ng/mL]","Hepcidin change to Day 35, mean (SD) [2]","Hepcidin change to Day 35, median [2] [ng/mL]","change in hepcidin from baseline (Day 1) to Day 35, in words [2]",further results
ferrous sulfate [Oral iron],11.0 (1.3) g/dL,10.9,10.7,10.4 (1.2) g/dL,0.6 (0.9) g/dL,0.5,20.8,0.6±0.9,5.2,29.0 (53.894) ng/mL,10.5,32.0 (44.314) ng/mL,19.6,−3.02 (41.793) ng/mL,-6.0,no significant change,"Hemoglobin change to Day 35, mean (SD) ([1]; listed as oral iron): 0.6 g/dL; Hepcidin at baseline (Day 1), mean (SD) ([2]; listed as oral iron): 32.03 ng/mL; hemoglobin change after the 14 day oral iron run-in, non-responders ([3]; non-responders (Hb Δ <1 g/dL)): 0.2 ± 0.4 g/dL; hemoglobin change after the 14 day oral iron run-in, responders ([3]; responders (Hb Δ ≧1 g/dL)): 1.8 ± 0.6 g/dL"
iron sucrose,–,–,–,–,–,–,–,–,–,–,–,–,–,–,–,–,"injected amount still in the blood ([4]; in vivo, iv): 2 to 13%; projected calculated terminal half-life (t½) ([4]; in vivo, iv): 6 h"
"polynuclear iron (III)-hydroxide 4(R)-(poly-(1→4)-O-α-glucopyranosyl)-oxy-2(R),3(S),5(R),6-tetrahydroxy-hexanoate [FCM]",12.0 (1.4) g/dL,12.2,10.4,10.3 (1.1) g/dL,1.7 (1.3) g/dL,1.7,65.3,1.7±1.3,37.5,160.5 (181.543) ng/mL,112.6,39.2 (92.236) ng/mL,2.5,121.35 (115.977) ng/mL,91.9,significant increase,"Hemoglobin change to Day 35, mean (SD) [1, 11]: 1.7 g/dL; Hepcidin on Day 35, mean (SD) [2, 11]: 160.51 ng/mL; Hepcidin at baseline (Day 1), mean (SD) [2, 11]: 39.15 ng/mL; Hepcidin change to Day 35, mean (SD) [2, 11]: 121.35 ng/mL; acute toxicity relative to iron sucrose [5]: one-fifth that of iron sucrose; safe and tolerated intravenous dose as multiple of the equivalent of an intravenous infusion of 1,000 mg iron once weekly in humans [6]: up to 60 times; no observed adverse effect level, cumulative dose [7]: up to 117 mg iron/kg body weight; treatment-related local tissue irritation [8]: No treatment-related local tissue irritation was observed; mutagenicity [9]: no evidence that FCM is clastogenic, mutagenic, or causes chromosomal damage or bone marrow cell toxicity; reaction with dextran antibodies [10]: does not react with dextran antibodies; specific responses in a dextran antigenicity test [10]: no specific responses; injected amount still in the blood ([4]; eight hours after intravenous administration): 5 to 20%; projected calculated terminal half-life (t½) ([4]; intravenous): approximately 16 hours"
